Measured values as given in US20210220356A1, “DIHYDROPYRIMIDINE DERIVATIVES AND USES THEREOF IN THE TREATMENT OF HBV INFECTION OR OF HBV-INDUCED DISEASES” (Janssen Sciences Ireland Unlimited Company, priority 2018, published 2021).
Like-named read-outs stand apart in the source and are kept apart here.

Tests used:
[1] = Cytotoxicity determination in HepG2.2.15 cells (CCK-8); type: cell-based; conditions: human, HepG2.2.15 cells, HepG2.2.15 cells, 5,000 cells/well, 6 days of compound treatment, CCK-8 absorbance 450 nm, highest concentration 100 uM
In short: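 HepG2.2.15 cells, 5,000/well in 2% FBS medium, treated 6 days with compound (medium refreshed midway), 8-point 3-fold dilutions from 100 uM top. Viability read by CCK-8, 2.5 h at 37° C, absorbance 450 nm with 630 nm reference; CC50 from curve fitting.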

HBV = HBV inhibitory activity in HepG2.2.15 cells (HBV DNA in culture medium by q-PCR); type: cell-based; conditions: HepG2.2.15 cells, 40,000 cells/well, 6 days of compound treatment, HBV DNA in culture medium by q-PCR, highest concentration 10 uM, read-out: EC50
In short: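 HepG2.2.15 cells (40,000/well, 2% FBS) treated 6 days with compounds, medium refreshed once; 8 points, 3-fold dilution, top 10 uM. Secreted HBV DNA in medium extracted and quantified by q-PCR; EC50 calculated from dose-response.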

[2] = Hepatitis B virus, HepG2.2.15, 144 h

CCOC(=O)C1=C(C2CCc3cn(CCC(=O)O)c(C#N)c3C2)NC(c2nccs2)=NC1c1ccc(F)c(F)c1Cl (centres unmarked) [Compound 63, 3-(6-(6-(2-Chloro-3,4-difluorophenyl)-5-(ethoxycarbonyl)-2-(thiazol-2-yl)-3,6-dihydropyrimidin-4-yl)-1-cyano-4,5,6,7-tetrahydro-2H-isoindol-2-yl)propanoic acid]
CC50 at 6 days [1]: 5100 nM
EC50 (HBV; [2]): 436 nM

CCOC(=O)C1=C(C2CCc3nn(CCC(=O)O)cc3C2)NC(c2nccs2)=NC1c1ccc(F)c(F)c1Br (single isomer, unassigned) [Compound 36d, 3-(5-(6-(2-Bromo-3,4-difluorophenyl)-5-(ethoxycarbonyl)-2-(thiazol-2-yl)-3,6-dihydropyrimidin-4-yl)-4,5,6,7-tetrahydro-2H-indazol-2-yl)propanoic acid]
CC50 at 6 days [1]: 9700 nM
EC50 (HBV; [2]): 87.9 nM

CCOC(=O)C1=C(C2CCc3nn([C@H]4C[C@H](C(=O)O)C4)cc3C2)NC(c2nccs2)=NC1c1ccc(F)c(F)c1Cl (stereo partly drawn) [Compound 54, (trans)-3-(5-(6-(2-Chloro-3,4-difluorophenyl)-5-(ethoxycarbonyl)-2-(thiazol-2-yl)-3,6-dihydropyrimidin-4-yl)-4,5,6,7-tetrahydro-2H-indazol-2-yl)cyclobutanecarboxylic acid]
CC50 at 6 days [1]: 16000 nM
EC50 (HBV; [2]): 19.8 nM

CCOC(=O)C1=C(C2CCc3nn(CCC(=O)O)cc3C2)NC(c2nccs2)=NC1c1cccc(F)c1Br (single isomer, unassigned) [Compound 42b, 3-(5-(6-(2-bromo-3-fluorophenyl)-5-(ethoxycarbonyl)-2-(thiazol-2-yl)-3,6-dihydropyrimidin-4-yl)-4,5,6,7-tetrahydro-2H-indazol-2-yl)propanoic acid]
CC50 at 6 days [1]: 10200 nM
EC50 (HBV): 131 nM

COC(=O)C1=C(C2CCc3nn(CCC(C)(C)C(=O)O)cc3C2)NC(c2nccs2)=NC1c1ccc(F)c(F)c1Cl (centres unmarked) [Compound 90c, 4-(5-(6-(2-Chloro-3,4-difluorophenyl)-5-(methoxycarbonyl)-2-(thiazol-2-yl)-3,6-dihydropyrimidin-4-yl)-4,5,6,7-tetrahydro-2H-indazol-2-yl)-2,2-dimethylbutanoic acid]
CC50 at 6 days [1]: 13300 nM
EC50 (HBV; [2]): 24.9 nM

CCOC(=O)C1=C(C2CCc3nn(C(C)CC(=O)O)cc3C2)NC(c2nccs2)=NC1c1ccc(F)c(F)c1Cl (single isomer, unassigned) [Compound 51b, 3-(5-(6-(2-chloro-3,4-difluorophenyl)-5-(ethoxycarbonyl)-2-(thiazol-2-yl)-3,6-dihydropyrimidin-4-yl)-4,5,6,7-tetrahydro-2H-indazol-2-yl)butanoic acid]
CC50 at 6 days [1]: 7700 nM
EC50 (HBV): 11.7 nM

COC(=O)C1=C(C2CCc3nn(CCC(=O)O)cc3C2)NC(c2nccs2)=NC1c1ccc(F)cc1C (centres unmarked) [Compound 80c, 3-(5-(6-(4-fluoro-2-methylphenyl)-5-(methoxycarbonyl)-2-(thiazol-2-yl)-3,6-dihydropyrimidin-4-yl)-4,5,6,7-tetrahydro-2H-indazol-2-yl)propanoic acid]
CC50 at 6 days [1]: 33200 nM
EC50 (HBV; [2]): 72.4 nM
